# Measured values taken from patent US8946275B2, “Treatment of cancer using hypoxia activated prodrugs” (Threshold Pharmaceuticals, Inc., priority 2008, dated 2015).
# Experiments:
# [1] = system: small cell lung cancer (SCLC); assay: TH-302 monotherapy in patients with lung cancer (SCLC); format: in vivo, human
# Experimental: Eight subjects with SCLC have been treated with TH-302 monotherapy at initial doses of 480 mg/m^2 to 670 mg/m^2 as part of a 3 consecutive week dosing regimen repeated every 4 weeks (this excludes one subject dosed at 60 mg/m^2 during the initial dose escalation). RECIST tumor assessments were performed initially for seven subjects. […] One of the seven subjects continued on-study for additional cycles of treatment.
# In this study, a person suffering from a lung cancer (a refractory small cell lung cancer) that had metastasized to liver was treated as follows. Lyophilized TH-302 was diluted with D5W and administered to the patient at an amount of 480 mg/m^2, according to the following 4 week dosing cycle: TH-302 was administered once every week for 3 weeks, on days 1, 8, and 15, followed by a week of no TH-302 administration. The patient was administered 2 cycles (i.e. 6 doses) of TH-302, and the lung and liver cancers assessed by a computed tomography (or CT) scan. […] LDH had decreased 72%, and liver function tests had normalized.
# [2] = system: H460 NSCLC; assay: H460 ectopic tumor model, TH-302 with carboplatin; format: in vivo, nude mice
# Experimental: Anti-tumor activity was evaluated by tumor growth inhibition (TGI) and tumor growth delay (TGD). Body weight change, gross and microscopic assessment of tissue changes, and hematologic assays served for toxicity assessment.
# Testing in these models was conducted generally as follows. 1×10^6 H460 human non-small cell lung cancer or HT1080 human fibrosarcoma cells were implanted in the subcutaneous space of the right flank to obtain ectopic xenograft models. For the orthotopic pancreatic model, red-fluorescent protein (RFP) expressing MIA PaCa2 tumors were surgically implanted on the surface of the pancreas. The prostate metastatic model was created by the intraventricular injection of 3×10^6 luciferase-expressing PC-3 cells. […] API grade of TH-302 was used in all experiments while docetaxel, gemcitabine, doxorubicin and pemetrexed were purchased from commercial sources.
# Inhibition of tumor growth after administration of TH-302 and carboplatin was greater than for either drug individually in an ectopic tumor model using H460 cells.
# [3] = system: metastatic melanoma; assay: TH-302 monotherapy in patients with metastatic melanoma; format: in vivo, human
# Experimental: As noted, TH-302 has shown benefit in patients with metastatic melanoma. The historical response rate in first-line metastatic melanoma is about 10%, so the results of treatment with TH-302 are quite remarkable. Eleven subjects with metastatic melanoma have been treated with TH-302 monotherapy at initial doses of 575 mg/m^2 to 670 mg/m^2 as part of a 3 consecutive week dosing regimen repeated every 4 weeks. RECIST tumor assessments have been performed for eight subjects. […] Four of the eight subjects continued on-study for additional dosing cycles. Two of the three subjects with a partial response continued on-study through at least Cycle 3 and Cycle 7. The other subject discontinued with clinical deterioration associated with neurological decline from brain metastases.
# A patient suffering from a primary melanoma (a skin cancer) that had metastasized to liver and lung was treated as follows. TH-302 was administered to the patient at an amount of 670 mg/m^2 using a 4 week (28 day) dosing cycle: TH-302 was administered once every week for 3 weeks, on days 1, 8, and 15, followed by a week of no TH-302 administration. The patient was administered 2 cycles of TH-302 and assessed by a CT scan.
# Enrollment in the study was expanded at the MTD in patients with metastatic melanoma. TH-302 was administered intravenously over 30-60 minutes on Days 1, 8 and 15 of a 28-day cycle. Eligible patients had ECOG≦1, at least one target lesion by RECIST, and acceptable hematologic, liver, and renal function. Patients with symptomatic brain metastases were excluded unless previously treated and well controlled for at least 3 months. Nine patients with metastatic melanoma have been treated in the study. The median age was 70 (range 23-78) with 5 females and 4 males and ECOG 0/1 in 4/5 patients. […] Metastatic sites included liver in 7 patients and lung in 6 patients. All patients had received at least one prior systemic chemotherapeutic regimen. Two serious adverse events, seizures and ascites, were reported; neither was considered related to study drug. Skin adverse events were reported in 8 patients and mucosal adverse events were reported in 4 patients including one grade 3 event. Myelosuppression was not significant, with one event of grade 3/4 neutropenia and anemia and no events of grade 3/4 thrombocytopenia. Eight patients have had RECIST tumor assessments.
# [4] = Phase 1 clinical trial of TH-302 monotherapy, dose escalation; format: in vivo, human
# Experimental: A Phase 1 clinical trial was conducted with TH-302. The starting dose was 7.5 mg/m^2 IV over 30-60 min administered once weekly for 3 weeks of a 4 week cycle. A modified accelerated titration design was used.
# [5] = 480-670 mg/m^2, weekly x3 every 4 weeks, seven subjects assessed
# [6] = one refractory SCLC patient, 480 mg/m^2, 2 cycles
# [7] = Carboplatin 20 mg/kg IV Q7Dx2, TH-302 100 mg/kg IP Q7Dx2, alone or combined
# [8] = TH-302 150 mg/kg IP Q7Dx2, alone or + Carboplatin 20 mg/kg IV Q7Dx2
# [9] = 575-670 mg/m^2, weekly x3 every 4 weeks, eight subjects assessed
# [10] = expansion at MTD, 8 patients assessed
# [11] = one patient, 670 mg/m^2, 2 cycles, CT scan
compound,measurement,setting,value
"Cn1c(COP(=O)(NCCBr)NCCBr)cnc1[N+](=O)[O-] [TH-302, (2-bromoethyl)({[(2-bromoethyl)amino][(2-nitro-3-methylimidazol-4-yl)methoxy]phosphoryl})amine]",Partial responses (RECIST),[1]; [5],Two of seven subjects
same,Stable disease (RECIST),[1]; [5],three of these same seven subjects
same,Decrease in sum of the longest diameters [SLD] of target lesions,[1]; [6],44%
same,LDH decrease,[1]; [6],72%
same,Reduction in area of cancer in lung and liver,[1]; [6],over 50%
same,Response,"[1]; three other patients with lung cancer (one NSCLC, 2 SCLC)",stable disease
same,Days to 500 mm^3,[2]; [7],13.5 days
same,T/C,[2]; [7],56.1%
same,"TGD500, Days (vs. vehicle)",[2]; [7],4 days
same,TGI,[2]; [7],43.9%
same,Tn (tumor volume on Day n),[2]; [7],706.0
same,Days to 500 mm^3,[2]; [8],14.5 days
same,T/C,[2]; [8],50.3%
same,"TGD500, Days (vs. vehicle)",[2]; [8],5 days
same,TGI,[2]; [8],49.7%
same,Tn (tumor volume on Day n),[2]; [8],641.6
same,Partial responses (RECIST),[3]; [9],Three of the eight subjects
same,Stable disease (RECIST),[3]; [9],three of eight subjects
same,RECIST partial responses,"[3]; expansion at MTD, Days 1, 8, 15 of 28-day cycle, 8 patients assessed",37%
same,Ongoing stable disease after 2 months of therapy,[3]; [10],38%
same,Progressive disease,[3]; [10],25%
same,Mucosal adverse events,[3]; nine patients treated,4 patients
same,Skin adverse events,[3]; nine patients treated,8 patients
same,Decrease in SLD of target lesions,[3]; [11],53%
same,Reduction in area of cancer in lung and liver,[3]; [11],over 50%
same,Dose limiting toxicity (DLT),[4]; 575 mg/m^2 weekly x3 of 4 week cycle,five of the six patients did not exhibit a DLT
same,Dose limiting toxicity (DLT),[4]; 670 mg/m^2 weekly x3 of 4 week cycle,Two of five patients
same,Dose limiting toxicity,[4]; 940 mg/m^2 once every three weeks,two of six subjects have had a dose limiting toxicity
same,Patients with stable disease,"[4]; Phase 1 monotherapy, all doses",16 patients
same,Dose limiting toxicities,"[4]; dose escalation study, monotherapy",mucositis with one grade 3 event involving the oral mucosa and one grade 3 event involving the gastrointestinal mucosa
same,Hematologic toxicity,[4]; monotherapy,mild and limited
same,Skin and mucosal toxicity,[4]; monotherapy,skin and mucosal toxicity was common at doses above 240 mg/m^2
same,MTD,[4]; once every three week dosing,670 mg/m^2
same,MTD,[4]; once per week for three weeks of a four week cycle,575 mg/m^2
